Reference: ChEMBL document CHEMBL1134299, “Conformationally constrained analogues of diacylglycerol. 18. The incorporation of a hydroxamate moiety into diacylglycerol-lactones reduces lipophilicity and helps discriminate between sn-1 and sn-2 binding modes to protein kinase C (PK-C). Implications for isozyme specificity” (J Med Chem, 2001)

Columns and labels:
[1] = biological target: Protein kinase C alpha type (Homo sapiens, UniProt P17252); assay: Displacement of [20-3H]-PDBU ligand from recombinant protein kinase C (baculovirus)
[2] = Partition coefficient (logP); assay type: physicochemical; conditions: octanol/water

| Ki [1] [nM] | logP [2] | Compound |
| --- | --- | --- |
| 5.42 | 3.58 | CC(C)CC(C/C=C1/CC(CO)(CN(O)C(=O)C(C)(C)C)OC1=O)CC(C)C (stereo not given) |
| 4.81 | 3.58 | CC(C)CC(C/C=C1\CC(CO)(CN(O)C(=O)C(C)(C)C)OC1=O)CC(C)C (stereo not given) |
| 10400 | – | CC(C)CC(C/C=C1\CC(CO)(COC(=O)C(C)(C)C)N(O)C1=O)CC(C)C (stereo not given) |
| 6.87 | 6.88 | CC(C)CC(C/C=C1/CC(CO)(COC(=O)CC(C(C)C)C(C)C)OC1=O)CC(C)C (stereo not given) |
| – | 5.89 | CC(C)C(C/C=C1/CC(CO)(COC(=O)CC(C(C)C)C(C)C)OC1=O)C(C)C (stereo not given) |
| 8.32 | – | CC(C)C(C/C=C1/CC(CO)(COC(=O)C(C)(C)C)OC1=O)C(C)C (stereo not given) |
| 4330 | 5.01 | CC(C)CC(C/C=C1/CC(CO)(COC(=O)C(C)(C)C)NC1=O)CC(C)C (stereo not given) |
| 11.2 | – | CC(C)C(C/C=C1\CC(CO)(COC(=O)C(C)(C)C)OC1=O)C(C)C (stereo not given) |
| 430 | 3.95 | CC(C)CC(C/C=C1/CC(CO)(CNC(=O)C(C)(C)C)OC1=O)CC(C)C (stereo not given) |
| 1260 | 3.95 | CC(C)CC(C/C=C1\CC(CO)(CNC(=O)C(C)(C)C)OC1=O)CC(C)C (stereo not given) |
| 4.46 | 6.88 | CC(C)CC(C/C=C1\CC(CO)(COC(=O)CC(C(C)C)C(C)C)OC1=O)CC(C)C (stereo not given) |
| 4840 | 5.01 | CC(C)CC(C/C=C1\CC(CO)(COC(=O)C(C)(C)C)NC1=O)CC(C)C (stereo not given) |
| – | 5.89 | CC(C)C(C/C=C1\CC(CO)(COC(=O)CC(C(C)C)C(C)C)OC1=O)C(C)C (stereo not given) |

| Compound | Ki [1] [nM] | logP [2] |
| --- | --- | --- |
| CC(C)CC(C/C=C1/CC(CO)(COC(=O)C(C)(C)C)OC1=O)CC(C)C (stereo not given) | 2.9 | 5.03 |
| CC(C)CC(C/C=C1\CC(CO)(COC(=O)C(C)(C)C)OC1=O)CC(C)C (stereo not given) | 4.51 | 5.03 |
